Test results as given in US20250228243A1, “METHODS AND COMPOSITIONS FOR PPO HERBICIDE TOLERANCE” (Monsanto Technology LLC, priority 2024, published 2025).

What was measured:
Format in all cases: in vivo
Details in all cases: 15 days after application, 2-4 leaf stage, 0.5% v/v Mero, scale 0-100 (percentage of leaf area damaged), average of 4 replicates
[1] = tested on: Cotton - Inbred, Conventional; experiment: Herbicide injury rating, greenhouse, conventional cotton
Experimental: (§1) Seeds of the regenerated transgenic plants described above were sown in 12-cm tall plastic pots containing standard soil (14.7% sand, 19.9% clay, 65.4% silt, and 1.8% organic matter). Transgenic cotton and corn seed were sown at a density of one seed per pot, whereas soybean was sown at a density of three seeds per pot. Plants were grown in a greenhouse with 60% relative humidity in a light cycle of 13 hour day and 11 hour night. The temperature was kept at 23° C. during the day and 12° C. at night. Herbicide tolerance of transgenic soybean, inbred corn, hybrid corn, and cotton plants, to herbicidal formulations comprising any of A1 to A3 and A7 was measured by applying respective formulations to plants at the 2-4 leaf stage (corresponding to BBCH 12-14) at dose rates of 100 or 200 g ai/ha. Methylated rapeseed oil (Mero) is used as an adjuvant and added to the spray mix for each herbicide at 0.5% v/v. Plants were visually assessed for herbicide injury at the following time points: 8 days, 15 days, 22 days after application. Unsprayed transgenic plants were used for phenotypic comparison with unsprayed wild-type plants.

[2] = tested on: Corn - Inbred, Conventional; experiment: Herbicide injury rating, greenhouse, conventional inbred corn
Experimental: as §1

[3] = tested on: Soybean - Inbred, Conventional; experiment: Herbicide injury rating, greenhouse, conventional soybean
Experimental: as §1

[4] = tested on: Soybean - Inbred, PPO-Transgenic; experiment: Herbicide tolerance evaluation, greenhouse, PPO-transgenic soybean expressing HemG PPO H_N90
Experimental: as §1, with “Plant transformation vectors were constructed for expressing a chloroplast transit peptide operably linked to the PPO H_[…] (SEQ ID NO:1) in transgenic soybean, inbred corn, hybrid corn, and cotton plants, and introduced into seed-derived explants of soybean, inbred and hybrid corn, and cotton, respectively, through Agrobacterium tumefaciens-mediated transformation using standard methods known in the art. The regenerated R0 plants were analyzed to select for events with a single copy insertion for advancement to R1 nursery for R1 seed production. Seeds” for “Seeds”

[5] = tested on: Corn - Inbred, PPO-Transgenic; experiment: Herbicide tolerance evaluation, greenhouse, PPO-transgenic inbred corn expressing HemG PPO H_N90
Experimental: as §1, with “Plant transformation vectors were constructed for expressing a chloroplast transit peptide operably linked to the PPO H_[…] (SEQ ID NO:1) in transgenic soybean, inbred corn, hybrid corn, and cotton plants, and introduced into seed-derived explants of soybean, inbred and hybrid corn, and cotton, respectively, through Agrobacterium tumefaciens-mediated transformation using standard methods known in the art. The regenerated R0 plants were analyzed to select for events with a single copy insertion for advancement to R1 nursery for R1 seed production. Seeds” for “Seeds”

[6] = tested on: Cotton - Inbred, PPO-Transgenic; experiment: Herbicide tolerance evaluation, greenhouse, PPO-transgenic cotton expressing HemG PPO H_N90
Experimental: as §1, with “Plant transformation vectors were constructed for expressing a chloroplast transit peptide operably linked to the PPO H_[…] (SEQ ID NO:1) in transgenic soybean, inbred corn, hybrid corn, and cotton plants, and introduced into seed-derived explants of soybean, inbred and hybrid corn, and cotton, respectively, through Agrobacterium tumefaciens-mediated transformation using standard methods known in the art. The regenerated R0 plants were analyzed to select for events with a single copy insertion for advancement to R1 nursery for R1 seed production. Seeds” for “Seeds”

[7] = tested on: Corn - Hybrid, PPO-Transgenic; experiment: Herbicide tolerance evaluation, greenhouse, PPO-transgenic hybrid corn expressing HemG PPO H_N90
Experimental: as §1, with “Plant transformation vectors were constructed for expressing a chloroplast transit peptide operably linked to the PPO H_[…] (SEQ ID NO:1) in transgenic soybean, inbred corn, hybrid corn, and cotton plants, and introduced into seed-derived explants of soybean, inbred and hybrid corn, and cotton, respectively, through Agrobacterium tumefaciens-mediated transformation using standard methods known in the art. The regenerated R0 plants were analyzed to select for events with a single copy insertion for advancement to R1 nursery for R1 seed production. Seeds” for “Seeds”

[8] = tested on: Corn - Hybrid, Conventional; experiment: Herbicide injury rating, greenhouse, conventional hybrid corn
Experimental: as §1

SMILES | Injury rating, Cotton - Inbred Conventional ([1]; 100 g ai/ha) | Injury rating, Cotton - Inbred Conventional ([1]; 200 g ai/ha) | Injury rating, Corn - Inbred Conventional ([2]; 100 g ai/ha) | Injury rating, Corn - Inbred Conventional ([2]; 200 g ai/ha) | Injury rating, Soybean - Inbred Conventional ([3]; 100 g ai/ha) | Injury rating, Soybean - Inbred Conventional ([3]; 200 g ai/ha) | Injury rating, Soybean - Inbred PPO-Transgenic ([4]; 100 g ai/ha) | Injury rating, Soybean - Inbred PPO-Transgenic ([4]; 200 g ai/ha) | Injury rating, Corn - Inbred PPO-Transgenic ([5]; 100 g ai/ha) | Injury rating, Corn - Inbred PPO-Transgenic ([5]; 200 g ai/ha) | Injury rating, Cotton - Inbred PPO-Transgenic ([6]; 100 g ai/ha) | Injury rating, Cotton - Inbred PPO-Transgenic ([6]; 200 g ai/ha) | Injury rating, Corn - Hybrid PPO-Transgenic ([7]; 100 g ai/ha) | Injury rating, Corn - Hybrid PPO-Transgenic ([7]; 200 g ai/ha) | Injury rating, Corn - Hybrid Conventional ([8]; 100 g ai/ha) | Injury rating, Corn - Hybrid Conventional ([8]; 200 g ai/ha)
CCOC(=O)C(C)OC(=O)C1(Oc2cc(-n3c(=O)cc(C(F)(F)F)n(C)c3=O)c(F)cc2Cl)CC1 (stereo not shown) [Compound A1, 1-ethoxy-1-oxopropan-2-yl 1-{2-chloro-4-fluoro-5-[3-methyl-2,6-dioxo-4-(trifluoromethyl)-3,6-dihydropyrimidin-1 (2H)-yl]phenoxy}cyclopropanecarboxylate] | 100 | 100 | 100 | 100 | 100 | 100 | 0 | 0 | 0 | 0 | 0 | 0 | 0 | 0 | 100 | 100
CC(OC(=O)C1(Oc2cc(-n3c(=O)cc(C(F)(F)F)n(C)c3=O)c(F)cc2Cl)CC1)C(=O)O (stereo not shown) [Compound A2, 2-{[(1-{2-chloro-4-fluoro-5-[3-methyl-2,6-dioxo-4-(trifluoromethyl)-3,6-dihydropyrimidin-1 (2H)-yl]phenoxy}cyclopropyl)carbonyl]oxy}propanoic acid] | 100 | 100 | 100 | 100 | 100 | 100 | 0 | 0 | 0 | 0 | 0 | 0 | 0 | 0 | 100 | 100
COC(=O)C(C)OC(=O)C1(Oc2cc(-n3c(=O)cc(C(F)(F)F)n(C)c3=O)c(F)cc2Cl)CC1 (stereo not shown) [Compound A3, 1-methoxy-1-oxopropan-2-yl 1-{2-chloro-4-fluoro-5-[3-methyl-2,6-dioxo-4-(trifluoromethyl)-3,6-dihydropyrimidin-1 (2H)-yl]phenoxy}cyclopropanecarboxylate] | 100 | 100 | 100 | 100 | 100 | 100 | 0 | 0 | 0 | 0 | 0 | 0 | 0 | 0 | 100 | 100
C=CCOC(=O)C(C)OC(=O)C1(Oc2cc(-n3c(=O)cc(C(F)(F)F)n(C)c3=O)c(F)cc2Cl)CC1 (stereo not shown) [Compound A7, 1-(allyloxy)-1-oxopropan-2-yl 1-{2-chloro-4-fluoro-5-[3-methyl-2,6-dioxo-4-(trifluoromethyl)-3,6-dihydropyrimidin-1 (2H)-yl]phenoxy}cyclopropanecarboxylate.] | 100− | 100 | 100 | 100 | 100 | 100 | 0 | 0 | 0 | 0 | 0 | 0 | 0 | 0 | 100 | 100
